Patent US9539226B2, “Composition containing serine as an active ingredient for the prevention and treatment of fatty liver diseases, and the use thereof” (SNU R&DB FOUNDATION, priority 2010, dated 2017)

How the values were obtained:
[1] = test system: SREBP1; experiment: SREBP1 expression by Western blot in acute fatty liver induced mouse model fed by alcohol; format: in vivo; conditions: FIG. 3
Procedure: (§1) In order to confirm whether the anti-steatotic effects of L-serine on alcoholic fatty liver is caused by the inhibition of SREBP1 activity or not, following experiment was performed according to the modified procedure disclosed in literature (Yin et al., Magnolia officinalis reverses alcoholic fatty liver by inhibiting the maturation of sterol regulatory element binding protein-1c, J. Pharmacol. Sci. 109:486-495, 2009). The expression of SREBP1 and its target gene product FAS were determined by the standard Western blot analysis using specific antibodies.

[2] = test system: acute fatty liver induced mouse model fed by alcohol; experiment: Fatty liver formation in acute fatty liver induced mouse model fed by alcohol (triglyceride level); format: in vivo; conditions: high dose group, 200 mg/kg L-serine orally twice plus ethanol
Procedure: In order to investigate the inhibitory effect on the formation of fatty liver in acute fatty liver induced mouse model fed with alcohol, following experiment was performed according to the modified procedure disclosed in literature (Song et al., S-Adenosylmethione protects against acute alcohol induced hepatotoxicity in mice, J. Nutr. Biochem. 14:591-597, 2003). Male C57/BL mouse (19-21 g) procured from Central Lab. Animal Inc. (www.labanimal.co.kr) was bred according to GLP (Good Laboratory Practice) guideline in animal breeding room providing freely accessible water and solid feed, and acclimated with environment for 7 days before use. The breeding room was controlled by automatic light system from 8:00 A.M. to 8:00 P.M, for 12 hours with adjusting the temperature to 24° C. and the mouse was freely let to access to water and feed. […] The ALT (s-GPT) enzyme activity was determined by analysis kit (YD diagnostics Inc, www.yd-diagnostics.com) according to the Reitman-Frankel method disclosed in preceding literature. The level of triglyceride in […] was determined by analysis kit analysis kit (Cat. No. TR0100, Sigma Aldrich Corp.) and the result was shown in FIG. 2.

[3] = test system: chronic ethanol fed rats; experiment: Hepatotoxicity and fatty liver in chronic ethanol fed rats (serum ALT, liver triglyceride); format: in vivo; conditions: wistar rat, ethanol diet with L-serine for 4 weeks (dose group not stated)
Procedure: In order to investigate the effects of L-serine on the hepatotoxicity and fatty liver in chronic ethanol fed rats, ALT (s-GPT) enzyme activity in the serum and triglyceride level in the liver was determined according to the modified procedure disclosed in literature (Lee et al., Effect of Chlorella vulgaris on lipid metabolism in wistar rats fed high fat diet, Nut. […]. 2:204-210, 2008). Male wistar rat (170-190 g) procured from Central Lab. Animal Inc. (www.labanimal.co.kr) was bred according to GLP (Good Laboratory Practice) guideline in animal breeding room providing freely accessible water and solid feed, and acclimated with environment for 7 days before use. The breeding room was controlled by automatic light system from 8:00 A.M. to 8:00 P.M, for 12 hours with adjusting the temperature to 24° C. During the experiment, the rat was fed with liquid diet (Standard […].com) for providing appropriate calorie. […] The ALT (s-GPT) enzyme activity was determined by analysis kit (YD diagnostics Inc, www.yd-diagnostics.com) according to the Reitman-Frankel method disclosed in preceding literature. The level of triglyceride in the rat liver was determined by analysis kit analysis kit (Cat. No. TR0100, Sigma Aldrich Corp.) and the result was shown in FIG. 4.

[4] = test system: H4IIEC3 cell; experiment: Ethanol induced lipid accumulation in H4IIEC3 (Nile red staining); format: cell-based, rodent; conditions: H4IIEC3 cells, ethanol plus L-serine (0.1, 1, 10 mM tested; concentration of this value not stated), 48 hrs; ethanol control 63.4 unit; P<0.05
Procedure: In order to investigate the inhibitory effect of the test sample on ethanol induced lipid accumulation in H4IIEc3, following experiment was performed according to the modified procedure disclosed in literature (Yin et al., Honokiol reverses alcoholic fatty liver by inhibiting the maturation of sterol regulatory element binding protein-1c and expression of its downstream lipogenesis genes: Toxicol. Appl. Pharmacol. 236:124-130, 2009). H4IIEC 3 cell, a rodent liver cancer cell line, was procured from ATCC (American Type Culture Collection) and used in the experiment. The cell was cultured in RPMI1640 medium supplemented with 10% FBS, 100 U/ml of penicillin, […] of streptomycin at 37° C. in 5% CO2 incubator and 1 ml of the cell was distributed to 96-well (1×10^4/ml) to be stabilized until the cell had grown completely for 12-16 hours in 5% CO2 incubator. The cell was treated with ethanol or combination with ethanol with various concentration of L-serine (0.1 mM, 1 mM, and 10 mM) to incubate for 48 hrs. […] The inhibition of lipid accumulation was determined by determining the fluorescence intensity of the Nil red changed by accumulated lipid induced by alcohol 5 mins after Nile red treatment through the observation with microscopy or microplate reader at 480 nm/580 nm.

[5] = test system: FAS; experiment: FAS expression by Western blot in acute fatty liver induced mouse model fed by alcohol; format: in vivo; conditions: FIG. 3
Procedure: as §1

Structure (SMILES): N[C@@H](CO)C(=O)O [L-serine]
- SREBP1 activation [1]: inhibited
- triglyceride level reduced by ([2]; C57/BL mouse): 58.5%
- triglyceride level ([2]; ethanol treatment group 99.7 mg/g): 52.4 mg/g
- hepatic triglyceride level ([3]; liver, ethanol group 91.69 mg/g liver): 53.4 mg/g liver
- ALT enzyme activity ([3]; serum, ethanol group 42.5 U/L): 24.67 U/L
- fluorescence intensity of Nile red (lipid accumulation) [4]: 29 unit
- FAS activation [5]: inhibited
